pIC50: −log10 of the molar value.
Biological target: EGFR (UniProt P00533)
Sequence (P00533 whole entry, looked up): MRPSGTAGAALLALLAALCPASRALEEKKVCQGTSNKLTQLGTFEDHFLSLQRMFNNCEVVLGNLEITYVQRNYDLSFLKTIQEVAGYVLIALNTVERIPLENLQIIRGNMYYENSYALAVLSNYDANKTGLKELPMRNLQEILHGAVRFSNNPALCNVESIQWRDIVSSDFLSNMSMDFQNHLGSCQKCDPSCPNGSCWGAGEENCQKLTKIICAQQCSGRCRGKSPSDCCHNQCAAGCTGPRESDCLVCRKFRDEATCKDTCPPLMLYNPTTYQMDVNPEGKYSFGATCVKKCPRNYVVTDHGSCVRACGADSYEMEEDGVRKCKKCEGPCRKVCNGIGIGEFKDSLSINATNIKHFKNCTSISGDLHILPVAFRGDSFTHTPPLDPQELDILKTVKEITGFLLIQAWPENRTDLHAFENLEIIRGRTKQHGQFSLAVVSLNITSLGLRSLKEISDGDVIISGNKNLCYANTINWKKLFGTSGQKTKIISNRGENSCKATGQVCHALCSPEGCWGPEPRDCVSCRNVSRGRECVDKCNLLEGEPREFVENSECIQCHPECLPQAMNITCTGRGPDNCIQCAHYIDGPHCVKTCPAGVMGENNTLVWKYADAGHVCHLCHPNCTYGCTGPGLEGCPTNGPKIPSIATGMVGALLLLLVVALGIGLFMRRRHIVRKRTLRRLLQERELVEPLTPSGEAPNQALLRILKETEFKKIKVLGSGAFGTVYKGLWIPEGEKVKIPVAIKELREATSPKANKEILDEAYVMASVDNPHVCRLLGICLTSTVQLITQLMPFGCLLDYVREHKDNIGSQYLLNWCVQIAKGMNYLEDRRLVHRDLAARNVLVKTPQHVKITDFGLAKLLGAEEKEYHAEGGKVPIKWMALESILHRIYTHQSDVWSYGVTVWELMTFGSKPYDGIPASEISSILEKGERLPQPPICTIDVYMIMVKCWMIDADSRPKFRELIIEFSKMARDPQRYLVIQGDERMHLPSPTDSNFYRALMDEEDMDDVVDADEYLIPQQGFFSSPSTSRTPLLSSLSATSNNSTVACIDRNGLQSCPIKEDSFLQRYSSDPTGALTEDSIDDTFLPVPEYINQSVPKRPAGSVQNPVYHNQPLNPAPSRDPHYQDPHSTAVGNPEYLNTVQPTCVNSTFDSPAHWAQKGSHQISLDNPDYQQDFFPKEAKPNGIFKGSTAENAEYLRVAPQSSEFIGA

Structure (SMILES) | pIC50
COc1cc(Nc2ccnc(Nc3ccc(OCc4ccccc4)cc3)n2)cc(OC)c1OC | ≤ 5.00
Cc1cccc(Nc2nccc(Nc3cccc(Br)c3)n2)c1 | ≤ 5.00
COc1cc(Nc2nccc(-n3c(=O)[nH]c4ccccc43)n2)cc(OC)c1OC | ≤ 5.00
COc1cc(Nc2nccc(-n3c(N)nc4ccccc43)n2)cc(OC)c1OC | ≤ 5.00
COc1cc(Nc2nccc(-n3c(=O)oc4ccccc43)n2)cc(OC)c1OC | ≤ 5.00
COc1ccc(Nc2ccnc(Nc3ccc(OC)c(OC)c3)n2)cc1OC | ≤ 5.00
Cc1cccc(Nc2ccnc(Nc3cccc(Br)c3)n2)c1 | ≤ 5.00
COc1cc(Nc2ccnc(-n3ccc4ccccc43)n2)cc(OC)c1OC | ≤ 5.00
COc1cc(Nc2nccc(-n3ccc4ccccc43)n2)cc(OC)c1OC | ≤ 5.00
COc1cc(Nc2nccc(-n3ccc(-c4ccc(Cl)cc4)n3)n2)cc(OC)c1OC | ≤ 5.00
Clc1cccc(Nc2ccnc(Nc3cccc(Cl)c3)n2)c1 | ≤ 5.00

Second part, the molecule after the results:

pIC50 | Structure (SMILES)
5.30 to 5.82 | COc1cc(Nc2ccnc(Nc3ccc4c(cnn4Cc4ccccc4)c3)n2)cc(OC)c1OC
5.00 to 5.30 | COc1cc(Nc2nccc(Nc3cc(C(C)(C)C)n[nH]3)n2)cc(OC)c1OC
5.00 to 5.30 | COc1ccc(-c2ccn(-c3ccnc(Nc4cc(OC)c(OC)c(OC)c4)n3)n2)cc1
> 5.82 | COc1cc(Nc2nccc(Nc3ccc4c(cnn4Cc4ccccc4)c3)n2)cc(OC)c1OC
5.00 to 5.30 | COc1cc(Nc2ccnc(Nc3ccc(Oc4ccccc4)cc3)n2)cc(OC)c1OC
